Test system: 885724-159-R-J1-PDC complex spheroid viability
Assay: Anticancer human tumor 885724-159-R-J1-PDC patient-derived pancreatic adenocarcinoma cell line growth inhibition [GQUAD]
Settings: for IC50: curve of first compound; for viability, T/C: stronger effect = lower value; active = viability on the fitted dose curve at most 10% of control; inactive = the rest
Source text: DNA G-quadruplex Stabilizer Agents in Combinations in Complex Spheroids
A high-throughput screen of multi-cell type tumor spheroids was designed to identify active combinations of DNA G-quadruplex stabilizer agents and targeted small molecules. Complex spheroids include a stromal component modeled by human endothelial cells (HUVEC) and fibroblasts modeled by human mesenchymal stem cells (MSCs). The concentration ranges selected for each drug and investigational agent were based upon clinically achievable concentrations if the clinical Cmax of the agent was known.
Compounds. The drugs and investigational agents: pidnarulex (CX-5461; NSC782164), APTO-253 (NSC789042), BRACO-19 (NSC847499), peposertib (NSC802822), ceralasertib (NSC780249), elimusertib (NSC800525), camonsertib (NSC841442), AZD-1390 (NSC803789), olaparib (NSC753686), talazoparib (NSC767125), ART-558 (NSC835418), sotorasib (NSC818433), MRTX-1133 (NSC836407), SN-38 (NSC673596), topotecan (NSC609699), etoposide (NSC141540), doxorubicin (NSC123127), gemcitabine (NSC613327), 5-fluorouracil (NSC19893), paclitaxel (NSC125973), vemurafenib (NSC761431), panobinostat (NSC761190), R-306465 (JNJ-16241199; NSC773264), adavosertib (NSC754352), TP-3654 (NSC805149), carboplatin (NSC241240), KSQ-4279 (NSC840948), and staurosporine (NSC755774) were obtained from the National Cancer Institute (NCI) Developmental Therapeutics Program Chemical Repository (34). The FDA-approved anticancer drug set is available from the NCI Developmental Therapeutics Program. […] The stock solutions were prepared in dimethyl sulfoxide (DMSO, Sigma-Aldrich, St. Louis, MO, cat. D2650) at 800-fold the tested concentration and stored at -70 degrees C prior to their use. All drugs and investigational agents were tested over a range starting from a high concentration at or near the clinical Cmax and decreasing in half-log increments. If the clinical Cmax for an agent had not been determined, the highest concentration tested was 10 microM.
2.3 Cell Culture. All cells were maintained in an incubator at 37 degrees C and 5% CO2 with 95% humidity. The PDC lines were cultured according to standard operating procedures established by the NCI PDMR. All PDCs were thawed and cultured in Matrigel-coated flasks prepared with a working solution of 1X Ham's F-12 nutrient mix, without supplementation (Invitrogen, cat. 11765054), 100 U/mL penicillin-streptomycin (Invitrogen, cat. 15140122), and 2.5% Matrigel (Corning Inc., cat. 354248) for the first three passages. The 857933-349-R-J2-PDC line was cultured in 6C/Colon 1B media, which includes advanced DMEM/F-12 (Thermo Fisher Scientific, cat. 12634028), 10 mM HEPES (Thermo Fisher Scientific, cat. 15630080), 1X GlutaMAX supplement (Thermo Fisher Scientific, cat. 35050061), 0.1 mg/mL primocin (InvivoGen, cat. ant-pm-2), 10% defined fetal bovine serum, heat inactivated (HyClone Laboratories Inc., cat. SH30070.03HI), 50% L-WRN conditioned media (ATCC, cat. CRL-3276), 1.25 mM N-Acetyl-L-cysteine (Sigma-Aldrich, cat. A9165), 10 mM nicotinamide (Sigma-Aldrich, cat. N0636), 1X B-27 supplement (Thermo Fisher Scientific, cat. 17504044), 1X N-2 supplement (Thermo Fisher Scientific, cat. 17502048), 10 microM Y-27632 dihydrochloride (Tocris Bioscience, cat. 1254), and 50 ng/mL human EGF recombinant protein (Thermo Fisher Scientific, cat. PHG0311). The 485176-168-R4-J1-PDC line was cultured in Panc media, which includes all 6C/Colon 1B media components plus 100 ng/mL human FGF-10 (Thermo Fisher Scientific, cat. 100-26), 500 nM SB-431542 (Selleckchem, cat. S1067), and gastrin (Tocris, cat. 3006).
[…]

[1] = second compound 0.0316 µM, first compound 0.0316 µM
[2] = second compound 0.0316 µM, first compound 0.316 µM
[3] = second compound 0.1 µM, first compound 0.0316 µM
[4] = second compound 0.1 µM, first compound 0.316 µM
[5] = second compound 0.316 µM, first compound 0.0316 µM
[6] = second compound 0.316 µM, first compound 0.316 µM
[7] = second compound 1 µM, first compound 0.0316 µM
[8] = second compound 1 µM, first compound 0.316 µM
[9] = second compound 3.16 µM, first compound 0.0316 µM
[10] = second compound 3.16 µM, first compound 0.316 µM
[11] = second compound 10 µM, first compound 0.0316 µM
[12] = second compound 10 µM, first compound 0.316 µM
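Also: spheroids exposed to agents for seven days before readout.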
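For viability, T/C in this document: percent of vehicle control viability where 100% = DMSO wells.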

Cc1[nH]c2ccccc2c1CCNCc1ccc(/C=C/C(=O)NO)cc1 + Cc1[nH]c2ccc(F)cc2c1-c1nc2c3cccnc3c3ncccc3c2[nH]1
305 nM: IC50 (second compound 0.1 µM)
213 nM: IC50 (second compound 1 µM)
271 nM: IC50 (second compound 0.0316 µM)
226 nM: IC50 (second compound 10 µM)
inactive: viability, T/C (second compound 0.0316 µM, first compound 0.000999 µM) 87% | viability, T/C (second compound 0.0316 µM, first compound 0.00316 µM) 99% | viability, T/C (second compound 0.0316 µM, first compound 0.00999 µM) 93.4% | viability, T/C [1] 98.2% | viability, T/C (second compound 0.0316 µM, first compound 0.0999 µM) 106% | viability, T/C [2] 42.8% | viability, T/C (second compound 0.1 µM, first compound 0.000999 µM) 95.9% | viability, T/C (second compound 0.1 µM, first compound 0.00316 µM) 90.3% | viability, T/C (second compound 0.1 µM, first compound 0.00999 µM) 87.8% | viability, T/C [3] 95% | viability, T/C (second compound 0.1 µM, first compound 0.0999 µM) 99.6% | viability, T/C [4] 48.5% | viability, T/C (second compound 0.316 µM, first compound 0.000999 µM) 101% | viability, T/C (second compound 0.316 µM, first compound 0.00316 µM) 77.9% | viability, T/C (second compound 0.316 µM, first compound 0.00999 µM) 83.1% | viability, T/C [5] 81.2% | viability, T/C (second compound 0.316 µM, first compound 0.0999 µM) 78.9% | viability, T/C [6] 46.4% | viability, T/C (second compound 1 µM, first compound 0.000999 µM) 75.5% | viability, T/C (second compound 1 µM, first compound 0.00316 µM) 60.8% | viability, T/C (second compound 1 µM, first compound 0.00999 µM) 66.4% | viability, T/C [7] 57.8% | viability, T/C (second compound 1 µM, first compound 0.0999 µM) 82.2% | viability, T/C [8] 40.3% | viability, T/C (second compound 3.16 µM, first compound 0.000999 µM) 18.1% | viability, T/C (second compound 3.16 µM, first compound 0.00316 µM) 13.1% | viability, T/C (second compound 3.16 µM, first compound 0.00999 µM) 19.2% | viability, T/C [9] 11.5% | viability, T/C (second compound 3.16 µM, first compound 0.0999 µM) 21.2% | viability, T/C [10] 31.6% | viability, T/C (second compound 10 µM, first compound 0.000999 µM) 68.1% | viability, T/C (second compound 10 µM, first compound 0.00316 µM) 75.2% | viability, T/C (second compound 10 µM, first compound 0.00999 µM) 64% | viability, T/C [11] 69.7% | viability, T/C (second compound 10 µM, first compound 0.0999 µM) 81.6% | viability, T/C [12] 41.2%
281 nM: IC50 (second compound 0.316 µM)
< 0.999 nM: IC50 (second compound 3.16 µM)

Cc1cccc(N(C)C(=O)C2C(O)CCN2c2nc(C)cc(C(F)(F)F)c2C#N)c1 (centres undefined) + Cc1[nH]c2ccc(F)cc2c1-c1nc2c3cccnc3c3ncccc3c2[nH]1
inactive: viability, T/C [1] 105% | viability, T/C (second compound 0.0316 µM, first compound 0.1 µM) 93.1% | viability, T/C [2] 82.5% | viability, T/C (second compound 0.0316 µM, first compound 1 µM) 100% | viability, T/C (second compound 0.0316 µM, first compound 3.16 µM) 94.2% | viability, T/C (second compound 0.0316 µM, first compound 10 µM) 93.1% | viability, T/C [3] 91.3% | viability, T/C (second compound 0.1 µM, first compound 0.1 µM) 95.3% | viability, T/C [4] 104% | viability, T/C (second compound 0.1 µM, first compound 1 µM) 98.6% | viability, T/C (second compound 0.1 µM, first compound 3.16 µM) 81.8% | viability, T/C (second compound 0.1 µM, first compound 10 µM) 87.8% | viability, T/C [5] 101% | viability, T/C (second compound 0.316 µM, first compound 0.1 µM) 101% | viability, T/C [6] 97.4% | viability, T/C (second compound 0.316 µM, first compound 1 µM) 79.9% | viability, T/C (second compound 0.316 µM, first compound 3.16 µM) 83.4% | viability, T/C (second compound 0.316 µM, first compound 10 µM) 86.7% | viability, T/C [7] 71.9% | viability, T/C (second compound 1 µM, first compound 0.1 µM) 70.6% | viability, T/C [8] 77.1% | viability, T/C (second compound 1 µM, first compound 1 µM) 66.2% | viability, T/C (second compound 1 µM, first compound 3.16 µM) 81% | viability, T/C (second compound 1 µM, first compound 10 µM) 70.8% | viability, T/C [9] 46.6% | viability, T/C (second compound 3.16 µM, first compound 0.1 µM) 41.4% | viability, T/C [10] 50.8% | viability, T/C (second compound 3.16 µM, first compound 1 µM) 42.6% | viability, T/C (second compound 3.16 µM, first compound 3.16 µM) 42.1% | viability, T/C (second compound 3.16 µM, first compound 10 µM) 43% | viability, T/C [11] 66.2% | viability, T/C (second compound 10 µM, first compound 0.1 µM) 68.3% | viability, T/C [12] 64.8% | viability, T/C (second compound 10 µM, first compound 1 µM) 69.1% | viability, T/C (second compound 10 µM, first compound 3.16 µM) 80.9% | viability, T/C (second compound 10 µM, first compound 10 µM) 82.7%
> 10000 nM: IC50 (second compound 0.0316 µM) | IC50 (second compound 0.1 µM) | IC50 (second compound 0.316 µM) | IC50 (second compound 1 µM) | IC50 (second compound 10 µM)
< 31.6 nM: IC50 (second compound 3.16 µM)

— PubChem BioAssay AID2060502 (Molecular Pharmacology Branch, DTP, NCI, 2025)
